Data as given in patent publication US20260364030A1, “NOVEL SELECTIVE INHIBITORS OF LYSYL OXIDASES” (Syntara Limited, priority 2022, published 2026).

Columns and labels:
Format in all cases: biochemical
LOXL1 [1] = molecular target: T1, LOXL1 (Homo sapiens, UniProt Q08397); assay: Jump dilution experiment, sustained inhibition of LOXL1; settings: for LOXL1 enzyme activity recovery: at 21-30 min after jump dilution, 10×IC50, 40 min preincubation at 37 °C; for Sustained inhibition of LOXL1: jump dilution, 21-30 min
T1 sequence (Q08397 96-574): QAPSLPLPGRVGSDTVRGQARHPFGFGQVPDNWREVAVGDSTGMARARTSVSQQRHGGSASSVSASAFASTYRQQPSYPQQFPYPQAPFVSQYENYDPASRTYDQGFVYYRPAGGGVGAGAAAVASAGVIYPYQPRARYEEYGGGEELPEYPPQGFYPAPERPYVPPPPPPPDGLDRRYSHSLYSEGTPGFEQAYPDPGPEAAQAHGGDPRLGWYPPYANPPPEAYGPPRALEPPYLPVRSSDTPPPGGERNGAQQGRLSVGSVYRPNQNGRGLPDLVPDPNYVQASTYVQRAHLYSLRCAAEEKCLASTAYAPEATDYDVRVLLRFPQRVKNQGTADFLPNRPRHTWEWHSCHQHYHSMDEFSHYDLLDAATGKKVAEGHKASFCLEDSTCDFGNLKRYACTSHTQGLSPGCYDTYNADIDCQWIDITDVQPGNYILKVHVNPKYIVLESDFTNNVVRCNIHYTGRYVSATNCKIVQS
Method: Jump Dilution experiment: The assay was developed using a 96 well format and the starting enzyme concentration was set 100 times higher than for the inhibition studies. The enzyme was incubated for 40 minutes at 37 °C in presence of 10×IC50 concentrations of the test inhibitor. After the incubation, the mixture was diluted 50x in assay buffer, followed by a further 2× dilution in Amplex Red-horseradish peroxidase-putrescine reaction mix (as for Example 2) prior to the fluorescence measurement. Results were expressed in % recovery of the signal at 21-30 min by comparison with non-inhibited controls. LOXL1 is used as a surrogate for LOX owing to similar pharmacological behaviour.

Human recombinant LOXL4 = Human recombinant LOXL4 (Homo sapiens, UniProt Q96JB6); assay: LOXL4 inhibition, Amplex Red oxidation assay; settings: 30 min incubation with enzyme at 37 °C
Method: (§1) LOX and LOXL protein family members can be acquired as recombinant active proteins from commercial sources, or extracted from animal tissues like bovine aorta, tendons, pig skin; or prepared from cell cultures. The inhibitory effects of the compounds of the present invention were tested against the given LOX or LOXL preparation using a method based on the detection of hydrogen peroxide with an Amplex Red oxidation assay [Zhou et al, 1997]. The assay was developed using either 384 or 96 well format. Briefly, in a standard black, clear bottom 384 well plate assay 25 µL of a dilution of any of the isoenzymes and orthologues in 1.2 M urea, 50 mM sodium borate buffer (pH 8.2) were added into each well in the presence of […] and 0.5 mM pargyline (to inhibit SSAO and MAO-B and MAO-A, respectively; not necessary if the enzyme is from a recombinant or purified form). Test compounds were dissolved in DMSO and tested in a Concentration Response Curve (CRC) with 11 data points, typically in the micromolar or nanomolar range after incubation with the enzyme for 30 min at 37 °C. […] The fluorescence (RFU) was read every 2.5 min for 30 min at 37 °C, excitation 544 nm and emission 590 (Optima; BMG labtech). The slope/min of the kinetics for each well was calculated using MARS data analysis software (BMG labtech) and this value was used to deduce the IC50 value (Dotmatics). […]

LOXL1 [2] = molecular target: T1, LOXL1; assay: LOXL1 inhibition, Amplex Red oxidation assay; settings: 30 min incubation with enzyme at 37 °C
Method: as §1

Bovine LOX = molecular target: T2, Bovine LOX (Bos taurus, UniProt P33072); assay: LOX inhibition, hydrogen peroxide Amplex Red oxidation assay
T2 sequence (P33072 170-418): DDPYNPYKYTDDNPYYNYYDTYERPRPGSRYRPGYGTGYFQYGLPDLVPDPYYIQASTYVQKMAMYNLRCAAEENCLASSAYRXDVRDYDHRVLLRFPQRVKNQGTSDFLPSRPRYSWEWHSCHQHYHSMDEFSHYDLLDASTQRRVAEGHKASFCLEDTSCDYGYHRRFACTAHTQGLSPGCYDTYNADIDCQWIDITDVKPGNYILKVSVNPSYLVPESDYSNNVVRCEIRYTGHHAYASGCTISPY
Method: LOX and LOXL protein family members can be acquired as recombinant active proteins from commercial sources, or extracted from animal tissues like bovine aorta, tendons, pig skin; or prepared from cell cultures. The inhibitory effects of the compounds of the present invention were tested against the given LOX or LOXL preparation using a method based on the detection of hydrogen peroxide with an Amplex Red oxidation assay [Zhou et al, 1997]. The assay was developed using either 384 or 96 well format. Briefly, in a standard black, clear bottom 384 well plate assay 25 µL of a dilution of any of the isoenzymes and orthologues in 1.2 M urea, 50 mM sodium borate buffer (pH 8.2) were added into each well in the presence of […] and 0.5 mM pargyline (to inhibit SSAO and MAO-B and MAO-A, respectively; not necessary if the enzyme is from a recombinant or purified form). […] of a reaction mixture containing twice the KM concentration of putrescine (Sigma Aldrich, e.g. 20 mM for LOX and LOXL1 or 10 mM for LOXL2 and 4 mM for LOXL3 and LOXL4), 120 µM Amplex Red (Thermo Fisher Scientific) and 1.5 U/mL horseradish peroxidase (Sigma Aldrich) prepared in 1.2 M urea, 50 mM sodium borate buffer (pH 8.2) were then added to the corresponding wells. The above volumes were doubled in the case of 96 wells plate. The fluorescence (RFU) was read every 2.5 min for 30 min at 37 °C, excitation 544 nm and emission 590 (Optima; BMG labtech). The slope/min of the kinetics for each well was calculated using MARS data analysis software (BMG labtech) and this value was used to deduce the IC50 value (Dotmatics). The ability of the inventive compounds to inhibit the amine oxidase activity of LOX and other family members is shown in Table 5.

[3] = 30 min incubation with enzyme at 37 °C

Chain of Human recombinant LOXL4 (Q96JB6 25-756): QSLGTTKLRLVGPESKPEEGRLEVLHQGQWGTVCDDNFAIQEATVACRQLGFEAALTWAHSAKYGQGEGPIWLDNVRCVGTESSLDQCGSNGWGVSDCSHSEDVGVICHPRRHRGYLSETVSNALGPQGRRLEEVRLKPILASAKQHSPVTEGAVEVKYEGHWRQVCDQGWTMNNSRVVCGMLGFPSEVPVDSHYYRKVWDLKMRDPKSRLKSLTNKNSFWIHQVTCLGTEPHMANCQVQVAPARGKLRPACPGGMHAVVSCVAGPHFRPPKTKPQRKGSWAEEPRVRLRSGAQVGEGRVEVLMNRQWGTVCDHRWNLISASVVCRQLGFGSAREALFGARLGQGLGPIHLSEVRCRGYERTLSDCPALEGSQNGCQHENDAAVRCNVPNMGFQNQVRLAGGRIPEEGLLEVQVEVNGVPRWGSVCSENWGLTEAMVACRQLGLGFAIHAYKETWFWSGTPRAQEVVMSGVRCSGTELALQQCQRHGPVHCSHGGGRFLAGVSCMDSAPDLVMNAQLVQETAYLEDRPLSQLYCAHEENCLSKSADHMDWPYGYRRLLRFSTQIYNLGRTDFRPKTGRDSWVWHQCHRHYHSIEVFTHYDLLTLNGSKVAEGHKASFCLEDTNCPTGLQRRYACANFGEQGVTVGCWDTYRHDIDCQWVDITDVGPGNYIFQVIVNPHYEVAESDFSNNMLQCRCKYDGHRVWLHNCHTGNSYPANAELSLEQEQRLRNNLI

Structure (SMILES)	LOXL1 enzyme activity recovery (LOXL1 [1]) [%]	Sustained inhibition of LOXL1 (LOXL1 [1])	IC50 (Human recombinant LOXL4) [µM]	IC50 (LOXL1 [2]) [µM]	IC50 (Bovine LOX; [3]) [µM]	IC50 (Bovine LOX; 2 h incubation with enzyme at 37 °C) [µM]
N#CCCN [BAPN, β-aminopropionitrile, reference compound]	0.3	sustained inhibition	0.3	2.5	2.3	–
NC/C(=C\F)CS(=O)(=O)c1ccccc1 [Compound 1, (E)-3-fluoro-2-((phenylsulfonyl)methyl)prop-2-en-1-amine]	2.5	sustained inhibition	4.7	13.2	10	< 5
